From US10993983B2, “Cyclic peptide epitopes and small-molecule mimics for inducing autophagy” (TRUSTEES OF TUFTS COLLEGE, priority 2016, dated 2021)

Assays:
Assay type in all cases: cell-based
HeLa cells = experiment: Autophagy induction judged by p62 and LC3 immunoblots together; parameters: key to Activity compared to wild-type WT / Activity (μM) 10, single symbol / Activity (μM) 30, single symbol / Activity (μM) 50, single symbol / Activity (μM) 100, single symbol: −: activity not reported; 0: decreased vs. WT; +: similar to WT; ++: modest increase vs. WT; +++: significant increase vs. WT; details: for Activity (μM) 10, single symbol: 10 μM; for Activity (μM) 30, single symbol: 30 μM; for Activity (μM) 50, single symbol: 50 μM; for Activity (μM) 100, single symbol: 100 μM
Description: This 10-mer sequence was substituted with various thiol-containing amino acids at various positions, and then cross-linked with various linkers as described above (FIG. 5, a and FIG. 6).
Cells were treated with peptide in OPTI-MEM (Thermo Scientific) acidified with 0.15% (v/v) 6N HCl for 3 hour. Cells were rinsed with Dulbecco's phosphate buffered saline (PBS) and lysed in lysis buffer (20 mM HEPES, 150 mM NaCl, 1 mM EDTA, 1% Triton X-100, protease inhibitor cocktail (Roche) on ice for 1 hour. Cell lysates were centrifuged at 16,000 g for 10 min at 4° C. and analyzed by SDS-PAGE and transferred to PVDF membranes. The membranes were blocked 5% non-fat dry milk (NFDM) in PBST (PBS+0.05% Tween-20) for 1 hour, then incubated overnight at 4° C. with primary antibody in 5% NFDM in PBST. The blots were washed with PBST and incubated with HRP-conjugated secondary antibodies diluted in 5% NFDM in PBST for 1 hour at room temperature. Membranes were washed with PBST and visualized with SuperSignal West Pico Chemiluminescent Substrate (Thermo Scientific). Semi-quantitative results were obtained by noting the lowest concentration at which both p62 degradation and LC3-I to LC3-II conversion were observed.
(SEQ ID NO: 16)-Sequence. […] The N-terminus was capped with an acetyl group while the C terminus was capped with a —C(O)—NH2 group. The activity reported is a summation of results from both the p62 degradation assay and the LC3 marker assay.

LC3 = LC3 marker assay (LC3-I to LC3-II conversion immunoblot); parameters: key: −: activity not reported; 0: decreased vs. WT; +: similar to WT; ++: modest increase vs. WT; +++: significant increase vs. WT; details: second symbol; for Activity (μM) 10, LC3 assay activity: 10 μM; for Activity (μM) 30, LC3 assay activity: 30 μM; for Activity (μM) 50, LC3 assay activity: 50 μM; for Activity (μM) 100, LC3 assay activity: 100 μM
p62 = p62 degradation assay (p62/actin immunoblot); parameters: key: −: activity not reported; 0: decreased vs. WT; +: similar to WT; ++: modest increase vs. WT; +++: significant increase vs. WT; details: first symbol; for Activity (μM) 10, p62/actin assay activity: 10 μM; for Activity (μM) 30, p62/actin assay activity: 30 μM; for Activity (μM) 50, p62/actin assay activity: 50 μM; for Activity (μM) 100, p62/actin assay activity: 100 μM
[1] = Table 4, starred rows (asterisk not explained)
[2] = Table 4, control inactive Tat-Beclin mutant
[3] = Table 8, *Data taken at 20 instead of 30 μM

With “YGRKKRRQRRR (Human immunodeficiency virus) [Tat, HIV-1 Tat protein transduction domain, reference compound]” the “Activity (μM) 10, single symbol” value (HeLa cells; [1]) was 0, the “Activity (μM) 30, single symbol” value (HeLa cells; [1]) was 0 and the “Activity (μM) 50, single symbol” value (HeLa cells; [1]) was 0. For the same sequence, the “Activity (μM) 100, single symbol” value (HeLa cells; [1]) was 0, the “Activity (μM) 10, LC3 assay activity” value (LC3; [2]) was 0/0 and the “Activity (μM) 30, LC3 assay activity” value (LC3; [2]) was 0/0. For the same sequence, the “Activity (μM) 50, LC3 assay activity” value (LC3; [2]) was “+”, the “Activity (μM) 100, LC3 assay activity” value (LC3; [2]) was 0/0 and the “Activity (μM) 10, p62/actin assay activity” value (p62; [2]) was 0/0. For the same sequence, the “Activity (μM) 30, p62/actin assay activity” value (p62; [2]) was 0/0, the “Activity (μM) 50, p62/actin assay activity” value (p62; [2]) was 0 and the “Activity (μM) 100, p62/actin assay activity” value (p62; [2]) was 0/0.
For VCNATCHIWH [Compound 16], the “Activity (μM) 10, single symbol” value (HeLa cells; Table 5) was 0, the “Activity (μM) 30, single symbol” value (HeLa cells; Table 5) was “+” and the “Activity (μM) 50, single symbol” value (HeLa cells; Table 5) was “++”. For the same sequence, the “Activity (μM) 100, single symbol” value (HeLa cells; Table 5) was “++”, the “Activity (μM) 10, LC3 assay activity” value (LC3; Table 5, control compound T25) was “++” and the “Activity (μM) 10, LC3 assay activity” value (LC3; Table 6, control DMSO) was “+”. For the same sequence, the “Activity (μM) 30, LC3 assay activity” value (LC3; Table 5, control compound T25) was “++”, the “Activity (μM) 30, LC3 assay activity” value (LC3; Table 6, control DMSO) was “+” and the “Activity (μM) 50, LC3 assay activity” value (LC3; Table 5, control compound T25) was “++”. The “Activity (μM) 50, LC3 assay activity” value (LC3; Table 6, control DMSO) was “+”, the “Activity (μM) 100, LC3 assay activity” value (LC3; Table 5, control compound T25) was “++” and the “Activity (μM) 100, LC3 assay activity” value (LC3; Table 6, control DMSO) was “+”. The “Activity (μM) 10, p62/actin assay activity” value (p62; Table 5, control compound T25) was 0, the “Activity (μM) 10, p62/actin assay activity” value (p62; Table 6, control DMSO) was “++” and the “Activity (μM) 30, p62/actin assay activity” value (p62; Table 5, control compound T25) was 0. For the same sequence, the “Activity (μM) 30, p62/actin assay activity” value (p62; Table 6, control DMSO) was “+++”, the “Activity (μM) 50, p62/actin assay activity” value (p62; Table 5, control compound T25) was 0 and the “Activity (μM) 50, p62/actin assay activity” value (p62; Table 6, control DMSO) was “+++”. For the same sequence, the “Activity (μM) 100, p62/actin assay activity” value (p62; Table 5, control compound T25) was 0 and the “Activity (μM) 100, p62/actin assay activity” value (p62; Table 6, control DMSO) was “+++”.
For VCNATCHIWH [Compound 17], the “Activity (μM) 10, single symbol” value (HeLa cells; Table 5) was 0, the “Activity (μM) 30, single symbol” value (HeLa cells; Table 5) was “++” and the “Activity (μM) 50, single symbol” value (HeLa cells; Table 5) was “+++”. The “Activity (μM) 100, single symbol” value (HeLa cells; Table 5) was “+++”, the “Activity (μM) 10, LC3 assay activity” value (LC3; Table 5, control compound T25) was 0 and the “Activity (μM) 10, LC3 assay activity” value (LC3; Table 6, control DMSO) was “++”. The “Activity (μM) 10, LC3 assay activity” value (LC3; Table 8, control compound T25) was “+++”, the “Activity (μM) 30, LC3 assay activity” value (LC3; Table 5, control compound T25) was 0 and the “Activity (μM) 30, LC3 assay activity” value (LC3; Table 6, control DMSO) was “++”. The “Activity (μM) 50, LC3 assay activity” value (LC3; Table 5, control compound T25) was “+”, the “Activity (μM) 50, LC3 assay activity” value (LC3; Table 6, control DMSO) was “++” and the “Activity (μM) 100, LC3 assay activity” value (LC3; Table 5, control compound T25) was 0. For the same sequence, the “Activity (μM) 100, LC3 assay activity” value (LC3; Table 6, control DMSO) was “+”, the “Activity (μM) 30, starred cell, LC3 assay activity” value (LC3; [3]) was “+++/+++*” and the “Activity (μM) 10, p62/actin assay activity” value (p62; Table 5, control compound T25) was “+++”. For the same sequence, the “Activity (μM) 10, p62/actin assay activity” value (p62; Table 6, control DMSO) was “+”, the “Activity (μM) 10, p62/actin assay activity” value (p62; Table 8, control compound T25) was “++” and the “Activity (μM) 30, p62/actin assay activity” value (p62; Table 5, control compound T25) was “++”. For the same sequence, the “Activity (μM) 30, p62/actin assay activity” value (p62; Table 6, control DMSO) was “+++”, the “Activity (μM) 50, p62/actin assay activity” value (p62; Table 5, control compound T25) was “++” and the “Activity (μM) 50, p62/actin assay activity” value (p62; Table 6, control DMSO) was “+++”. For the same sequence, the “Activity (μM) 100, p62/actin assay activity” value (p62; Table 5, control compound T25) was “++”, the “Activity (μM) 100, p62/actin assay activity” value (p62; Table 6, control DMSO) was “+++” and the “Activity (μM) 30, starred cell, p62/actin assay activity” value (p62; [3]) was “+++/+++*”.
